Measurements as given in patent US10391095B2, “DNA-PK inhibitors” (Vertex Pharmaceuticals Incorporated, priority 2012, dated 2019).

The compounds below were run against DNA-PK (Homo sapiens, UniProt P78527) (assay: DNA-PK inhibition assay (radiometric, 33P-ATP)). Details: 100 μM ATP, competitive tight-binding fit.
Type: biochemical
Protocol: Compounds were screened for their ability to inhibit DNA-PK kinase using a standard radiometric assay. Briefly, in this kinase assay the transfer of the terminal ^33P-phosphate in ^33P-ATP to a peptide substrate is interrogated. The assay was carried out in 384-well plates to a final volume of 50 μL per well containing approximately 6 nM DNA-PK, 50 mM HEPES (pH 7.5), 10 mM MgCl2, 25 mM NaCl, 0.01% BSA, 1 mM DTT, 10 μg/mL sheared double-stranded DNA (obtained from Sigma), 0.8 mg/mL DNA-PK peptide ([…] obtained from American Peptide), and 100 μM ATP. Accordingly, compounds of the invention were dissolved in DMSO to make 10 mM initial stock solutions. Serial dilutions in DMSO were then made to obtain the final solutions for the assay. A 0.75 μL aliquot of DMSO or inhibitor in DMSO was added to each well, followed by the addition of ATP substrate solution containing ^33P-ATP (obtained from Perkin Elmer). The reaction was started by the addition of DNA-PK, peptide and ds-DNA. After 45 min, the reaction was quenched with 25 μL of 5% phosphoric acid. The reaction mixture was transferred to MultiScreen HTS 384-well PH plates (obtained from Millipore), allowed to bind for one hour, and washed three times with 1% phosphoric acid. Following the addition of 50 μL of Ultima Gold™ high efficiency scintillant (obtained from Perkin Elmer), the samples were counted in a Packard TopCount NXT Microplate Scintillation and Luminescence Counter (Packard BioScience). The Ki values were calculated using Microsoft Excel Solver macros to fit the data to the kinetic model for competitive tight-binding inhibition.

Row | Ki | SMILES
1 | < 30 nM | CONC(=O)c1ccc(C(C)CNc2cc(-c3ccc(C)nc3)ncn2)c(OC)c1 (centres unmarked) [Compound 157]
2 | < 30 nM | COc1cc(C(=O)NC2CC2)ccc1C(C)CNc1cc(-c2ccc(C)nc2)ncn1 (centres unmarked) [Compound 158]
3 | < 30 nM | COc1cc(C(=O)NC2CCCC2)ccc1C(C)CNc1cc(-c2ccc(C)nc2)ncn1 (centres unmarked) [Compound 159]
4 | < 30 nM | Cc1ccc(-c2cc(NCC(C)c3cnccc3OC3CC3)ncn2)cn1 (centres unmarked) [Compound 165]
5 | < 30 nM | CNC(=O)c1ccc(C(C)CNc2cc(-c3cnc4[nH]ncc4c3)ncn2)c(OC)c1 (centres unmarked) [Compound 167]
6 | < 30 nM | COc1ccccc1[C@H](C)CNc1cc(-c2cnc3c(cnn3C)c2)ncn1 [Compound 172]
7 | < 30 nM | COc1ccccc1[C@H](C)CNc1cc(-c2cnc3c(ccn3C)c2)ncn1 [Compound 173]
8 | < 30 nM | CNC(=O)c1ccc([C@H](C)CNc2cc(-c3ccc(C)nc3)ncn2)c(OC)c1 [Compound 175]
9 | < 30 nM | COCCn1ncc2cc(-c3cc(NCC(C)c4cnccc4OC4CC4)ncn3)cnc21 (centres unmarked) [Compound 176]
10 | < 30 nM | CC(CNc1cc(-c2ccc(N3CCN(C)CC3)nc2)ncn1)c1cnccc1OC1CC1 (centres unmarked) [Compound 177]
11 | < 30 nM | COc1cc(N)ccc1C(C)CNc1cc(-c2ccc(C)nc2)ncn1 (centres unmarked) [Compound 178]
12 | < 30 nM | COc1ccccc1[C@H](C)CNc1cc(-c2cnc3c(cnn3C3COC3)c2)ncn1 [Compound 179]
13 | < 30 nM | Cc1ccc(-c2cc(NCC(C)c3ccccc3OCCCO)ncn2)cn1 (centres unmarked) [Compound 182]
14 | < 30 nM | Cc1ccc(-c2cc(NCC(C)c3ccccc3OC3CCCCC3)ncn2)cn1 (centres unmarked) [Compound 183]
15 | < 30 nM | Cc1ccc(-c2cc(NCC(C)c3ccccc3OCC3CC3)ncn2)cn1 (centres unmarked) [Compound 186]
16 | < 30 nM | CNC(=O)c1ccc(C(C)CNc2cc(-c3cnc4c(cnn4C)c3)ncn2)c(OC)c1 (centres unmarked) [Compound 188]
17 | < 30 nM | CNC(=O)c1ccc(C(C)CNc2cc(-c3cnc4c(ccn4C)c3)ncn2)c(OC)c1 (centres unmarked) [Compound 189]
18 | < 30 nM | CNC(=O)c1ccc(C(C)CNc2cc(-c3cnc(C)nc3)ncn2)c(OC)c1 (centres unmarked) [Compound 193]
19 | < 30 nM | Cc1ccc(-c2cc(NCC(C)c3ccccc3OCC3CCCC3)ncn2)cn1 (centres unmarked) [Compound 194]
20 | < 30 nM | Cc1ccc(-c2cc(NCC(C)c3ccccc3OCC3CCCO3)ncn2)cn1 (centres unmarked) [Compound 195]
21 | < 30 nM | COc1ccccc1[C@H](C)CNc1cc(-c2ccc(Nc3nc[nH]n3)nc2)ncn1 [Compound 198]
22 | < 30 nM | COc1ccccc1[C@H](C)CNc1cc(-c2ccc(NC(CO)CO)nc2)ncn1 [Compound 199]
23 | < 30 nM | CNCCCNc1ccc(-c2cc(NC[C@@H](C)c3ccccc3OC)ncn2)cn1 [Compound 201]
24 | < 30 nM | COc1ccccc1[C@H](C)CNc1cc(-c2ccc(NCC#N)nc2)ncn1 [Compound 202]
25 | < 30 nM | COc1ccccc1[C@H](C)CNc1cc(-c2ccc(Nc3nn[nH]n3)nc2)ncn1 [Compound 203]

Row | Ki | SMILES
26 | < 30 nM | COc1ccccc1[C@H](C)CNc1cc(-c2ccc(NCC3(O)CC3)nc2)ncn1 [Compound 204]
27 | < 30 nM | CNCCNc1ccc(-c2cc(NC[C@@H](C)c3ccccc3OC)ncn2)cn1 [Compound 205]
28 | < 30 nM | COc1ccccc1[C@H](C)CNc1cc(-c2ccnc(NCCCO)c2)ncn1 [Compound 206]
29 | < 30 nM | CNCCCNc1cc(-c2cc(NC[C@@H](C)c3ccccc3OC)ncn2)ccn1 [Compound 209]
30 | < 30 nM | COc1ccccc1[C@H](C)CNc1cc(-c2ccnc(NCCSC)c2)ncn1 [Compound 210]
31 | < 30 nM | COc1ccccc1[C@H](C)CNc1cc(-c2ccnc(Nc3nn[nH]n3)c2)ncn1 [Compound 211]
32 | < 30 nM | CC(CNc1cc(-c2cnc3[nH]ncc3c2)ncn1)c1ccccc1OC1COC1 (centres unmarked) [Compound 214]
33 | < 30 nM | COCCn1ncc2cc(-c3cc(NCC(C)c4ccccc4OC4COC4)ncn3)cnc21 (centres unmarked) [Compound 215]
34 | < 30 nM | CC(CNc1cc(-c2cnc3c(cnn3CC3CC3)c2)ncn1)c1ccccc1OC1COC1 (centres unmarked) [Compound 217]
35 | < 30 nM | COc1cc(C(=O)NCC(F)(F)F)ccc1C(C)CNc1cc(-c2ccc(C)nc2)ncn1 (centres unmarked) [Compound 218]
36 | < 30 nM | COCCn1ncc2cc(-c3cc(NCC(C)c4ccc(C(=O)NCC(F)(F)F)cc4OC)ncn3)cnc21 (centres unmarked) [Compound 220]
37 | < 30 nM | COc1cc(C(=O)NOCc2ccccc2)ccc1C(C)CNc1cc(-c2ccc(C)nc2)ncn1 (centres unmarked) [Compound 222]
38 | < 30 nM | CNC(=O)c1ccc(C(C)CNc2cc(-c3cnc4c(cnn4C[C@@H](O)CO)c3)ncn2)c(OC)c1 (some centres unmarked) [Compound 225]
39 | < 30 nM | COCCn1ncc2cc(-c3cc(NCC(C)c4cscc4OC)ncn3)cnc21 (centres unmarked) [Compound 227]
40 | < 30 nM | COc1cscc1C(C)CNc1cc(-c2cnc3c(cnn3C3CCN(C)CC3)c2)ncn1 (centres unmarked) [Compound 228]
41 | < 30 nM | COc1ccsc1C(C)CNc1cc(-c2cnc3c(cnn3CC3CC3)c2)ncn1 (centres unmarked) [Compound 232]
42 | < 30 nM | COc1ccsc1C(C)CNc1cc(-c2cnc3c(cnn3CCO)c2)ncn1 (centres unmarked) [Compound 233]
43 | < 30 nM | Cc1ccc(-c2cc(NCC(C)c3cccc4cccnc34)ncn2)cn1 (centres unmarked) [Compound 235]
44 | < 30 nM | CC(CNc1cc(-c2ccc(N3CCN(C)CC3)nc2)ncn1)c1cccc2cccnc12 (centres unmarked) [Compound 236]
45 | < 30 nM | CC(CNc1cc(-c2cnc3c(cnn3C3CCN(C)CC3)c2)ncn1)c1cccc2cccnc12 (centres unmarked) [Compound 237]
46 | < 30 nM | CCNC(=O)Cn1ncc2cc(-c3cc(NCC(C)c4ccc(C(=O)NC)cc4OC)ncn3)cnc21 (centres unmarked) [Compound 238]
47 | < 30 nM | CNC(=O)c1ccc(C(C)CNc2cc(-c3cnc4c(cnn4CCN4CCCC4=O)c3)ncn2)c(OC)c1 (centres unmarked) [Compound 239]
48 | < 30 nM | Cc1ccc(-c2cc(NCC(C)c3ccccc3OC3CCC3)ncn2)cn1 (centres unmarked) [Compound 240]
49 | < 30 nM | Cc1ccc(-c2cc(NCC(C)c3ccccc3OC3CCCC3)ncn2)cn1 (centres unmarked) [Compound 241]
50 | < 30 nM | COc1ccccc1[C@H](C)CNc1cc(-c2ccc(NC3CCN(C4CC4)CC3)nc2)ncn1 [Compound 242]

Row | Ki | SMILES
51 | < 30 nM | CNC(=O)c1ccc([C@H](C)CNc2cc(-c3ccc4c(cnn4C4COC4)c3)ncn2)c(OC)c1 [Compound 243]
52 | < 30 nM | COc1ccc(Br)cc1C(C)CNc1cc(-c2ccc(C)nc2)ncn1 (centres unmarked) [Compound 245]
53 | < 30 nM | CNC(=O)c1ccc(C(C)CNc2cc(-c3ccc4c(cnn4CCO)c3)ncn2)c(OC)c1 (centres unmarked) [Compound 246]
54 | < 30 nM | Cc1ccc(-c2cc(NCC(C)c3cccnc3OC3CCC3)ncn2)cn1 (centres unmarked) [Compound 247]
55 | < 30 nM | CNC(=O)c1ccc(C(C)CNc2cc(-c3cnc4c(cnn4C4CN(C(C)=O)C4)c3)ncn2)c(OC)c1 (centres unmarked) [Compound 248]
56 | < 30 nM | COc1ccccc1[C@H](C)CNc1cc(-c2cnc3c(cnn3C3CN(C(C)=O)C3)c2)ncn1 [Compound 249]
57 | < 30 nM | COC(=O)c1ccc(OC)c(C(C)CNc2cc(-c3ccc(C)nc3)ncn2)c1 (centres unmarked) [Compound 250]
58 | < 30 nM | CNC(=O)c1ccc([C@H](C)CNc2cc(-c3cnc4c(ccn4C4COC4)c3)ncn2)c(OC)c1 [Compound 252]
59 | < 30 nM | CNC(=O)c1ccc([C@H](C)CNc2cc(-c3cnc4c(ccn4CC4CC4)c3)ncn2)c(OC)c1 [Compound 253]
60 | < 30 nM | COc1ccccc1[C@H](C)CNc1cc(-c2ccc(NC3CCN(C)CC3)nc2)ncn1 [Compound 254]
61 | < 30 nM | COc1ccccc1[C@H](C)CNc1cc(-c2ccc(N(C)C)nc2)ncn1 [Compound 255]
62 | < 30 nM | CNC(=O)c1ccc(C(C)CNc2cc(-c3ccc4ncccc4c3)ncn2)c(OC)c1 (centres unmarked) [Compound 256]
63 | < 30 nM | COc1sccc1C(C)CNc1cc(-c2ccc(C)nc2)ncn1 (centres unmarked) [Compound 257]
64 | < 30 nM | COCCn1ncc2cc(-c3cc(NCC(C)c4ccsc4OC)ncn3)cnc21 (centres unmarked) [Compound 258]
65 | < 30 nM | COc1sccc1C(C)CNc1cc(-c2cnc3c(cnn3CCO)c2)ncn1 (centres unmarked) [Compound 259]
66 | < 30 nM | COCCn1ncc2cc(-c3cc(NCC(C)c4sccc4OC)ncn3)cnc21 (centres unmarked) [Compound 260]
67 | < 30 nM | COc1cscc1C(C)CNc1cc(-c2cnc3c(cnn3CCO)c2)ncn1 (centres unmarked) [Compound 261]
68 | < 30 nM | COc1ccsc1C(C)CNc1cc(-c2cnc3c(cnn3C3CCN(C)CC3)c2)ncn1 (centres unmarked) [Compound 262]
69 | < 30 nM | CNC(=O)c1ccc([C@H](C)CNc2cc(-c3ccc4c(c3)ncn4C)ncn2)c(OC)c1 [Compound 263]
70 | < 30 nM | COc1sccc1C(C)CNc1cc(-c2cnc3c(cnn3C3CCN(C)CC3)c2)ncn1 (centres unmarked) [Compound 264]
71 | < 30 nM | COc1sccc1C(C)CNc1cc(-c2ccc(N3CCN(C)CC3)nc2)ncn1 (centres unmarked) [Compound 265]
72 | < 30 nM | COc1sccc1C(C)CNc1cc(-c2cnc3c(cnn3CC3CC3)c2)ncn1 (centres unmarked) [Compound 266]
73 | < 30 nM | CNC(=O)c1ccc([C@H](C)CNc2cc(-c3ccc4c(ccn4C)c3)ncn2)c(OC)c1 [Compound 268]

Row | SMILES | Ki
74 | COc1ccccc1[C@H](C)CNc1cc(-c2ccc(N(C)C3CCN(C)CC3)nc2)ncn1 [Compound 223] | < 30 nM
